# Data from patent US8778954B2, “Phenylpyridine derivative and medicinal agent comprising same” (Kowa Company, Ltd., priority 2009, dated 2014).
# Experiments:
# [1] = system: spontaneously hypertensive rats (SHR); assay: Hypotensive activity with tail cuff method in spontaneously hypertensive rats; format: in vivo, rat; conditions: 3 and 10 mg/kg orally once a day for 7 days, 4, 24 and 72 hours after final administration, FIG. 1
# Experimental: By using 19-week old spontaneously hypertensive rats (SHR), the body weight and the systolic blood pressure (SBP) of each rat were measured before administration of the medicine, and group separation was performed by blocking assignment so that there was no variation of these values between respective groups. Solvent control (0.5% methyl cellulose solution, MC), 3 mg/kg telmisartan, 3 and 10 mg/kg of the compound of Example 21, and 3 and 10 mg/kg of the compound of Example 23 were orally administered iteratively for 7 days, once a day. The blood pressure and the heart beat rate were measured with tail cuff method at 4, 24, and 72 hours after the administration of the final administration day. Specifically, the rat was put into a cylindrical positioner, maintained at 37° C., and the blood pressure and the heart beat rate were measured from the tail of the rat during the resting state using a non-invasive blood pressure meter (trade name: BP-98A, manufactured by Softron Co., Ltd., Tokyo, Japan). The blood pressure and the heart beat rate were measured for each individual three times or more in a row. When the difference of the systolic blood pressures between the consecutive measurement values was 5 mmHg or less, the average values of these measurement values were taken as data, except for the first measurement. […]
# [2] = system: db/db mice; assay: Impaired glucose tolerance improving activity in type 2 diabetes model mouse; format: in vivo; conditions: oral once a day, Example 23 10 mg/kg, Example 21 30 mg/kg, telmisartan 30 mg/kg; for plasma glucose concentration: 2 weeks after initiation, FIG. 2; for AUC of plasma glucose in the glucose tolerance test (120 minutes after glucose solution): 4 weeks, glucose 2 g/kg, FIG. 3
# Experimental: By using 7-week old db/db mice, the body weight and the plasma glucose concentration of each mouse were measured before administration of the medicine, and group separation was performed by blocking assignment so that there was no variation of these values between respective groups. Solvent control (0.5% MC), 5 mg/kg rosiglitazone, 30 mg/kg telmisartan, 10 mg/kg of the compound of Example 23, and 30 mg/kg of the compound of Example 21 were orally administered iteratively for 4 weeks, once a day. Blood collecting was performed from the orbital vein plexus, and the plasma glucose concentration was measured at 2 weeks after the initiation of the administration. Furthermore, oral glucose tolerance test was performed at 4 weeks after the initiation of the administration. Specifically, the mouse was fasted for 24 hours from the night before the glucose tolerance test, and then a glucose solution was orally administered at a dose of 2 g/kg. The blood was collected from the tail vein of the mouse at 15, 30, 60, and 120 minutes after the administration of the glucose solution, and the concentration of the plasma glucose was measured. The area surrounded with the measured plasma glucose concentration and the time was taken as the area under the curve (AUC), and AUC for 120 minutes after administration of the glucose solution was estimated from the trapezoidal method.
# Vehicle, Rosiglitazone, Telmisartan, Compound 23, and Compound 21 in FIGS. 2 and 3 represent solvent control, rosiglitazone, telmisartan, the compound of Example 23, and the compound of Example 21, respectively. The vertical axis of FIG. 2 represents the plasma glucose concentration. The data in FIG. 2 represents individual values and average values of each individual. The vertical axis of FIG. 3 represents the area under the curve surrounded with the plasma glucose concentration and the time (for 120 minutes after administration of the glucose solution). The data in FIG. 3 represents individual values and average values of each individual. […] Such activities were not confirmed for the telmisartan administration group.
smiles,measurement,setting,value
"CCCCc1nc(C2CC2)n(-c2ncc(OCC)cn2)c(=O)c1Cc1ccc(-c2ccccc2-c2noc(=O)[nH]2)nc1 [Example 23, 3-{2-{5-{[4-butyl-2-cyclopropyl-1-(5-ethoxypyrimidin-2-yl)-6-oxo-1,6-dihydropyrimidin-5-yl]methyl}pyridin-2-yl}phenyl}-1,2,4-oxadiazol-5(4H)-one]",blood pressure lowering activity (change in systolic blood pressure from pre-administration),[1],potent blood pressure lowering activity dose-dependently that was equivalent or more to telmisartan
same,plasma glucose concentration,[2],remarkable lowering activity of the plasma glucose concentration
same,AUC of plasma glucose in the glucose tolerance test (120 minutes after glucose solution),[2],remarkably lowering AUC
"CCCCc1nc(C(C)C)n(-c2ncc(OCC)cn2)c(=O)c1Cc1ccc(-c2ccccc2-c2noc(=O)[nH]2)nc1 [Example 21, 3-{2-{5-{[4-butyl-1-(5-ethoxypyrimidin-2-yl)-2-isopropyl-6-oxo-1,6-dihydropyrimidin-5-yl]methyl}pyridin-2-yl}phenyl}-1,2,4-oxadiazol-5(4H)-one]",blood pressure lowering activity (change in systolic blood pressure from pre-administration),[1],potent blood pressure lowering activity dose-dependently that was equivalent or more to telmisartan
same,plasma glucose concentration,[2],remarkable lowering activity of the plasma glucose concentration
same,AUC of plasma glucose in the glucose tolerance test (120 minutes after glucose solution),[2],remarkably lowering AUC
